Tests used:
[1] = assay type: physicochemical; settings: room temperature
Protocol: Galanthamine and its acid addition salts form crystals. […] If necessary, pharmaceutically-acceptable suspension aids may be employed. Typically, such a suspension will be employed at a concentration of 0.1-50 mg/ml, such as 1-50 mg/ml, more commonly 5-40 mg/ml, for example, 5-30 mg/ml or 10-40 mg/ml, such as 10-30 mg/ml, especially 20-30 mg/ml of galanthamine. As mentioned above, typical dosage rates when administering galanthamine by injection are the range 0.01-20 mg per day depending upon the patient. […] In other cases, dosages as low as 5 mg and as high as 200 mg per day may be appropriate for persons in this body weight range.

[2] = Side effects in treated patients; assay type: in vivo, human
Protocol: A complete elimination of metabolites and galanthamine takes place in 72 hours. […] The common side effects, other than the ones related to cholinergic crisis, are either nausea or vomiting, and a slight headache. However, these side effects are rare, especially when care is taken to start medication in low doses such as mentioned above.
Although galanthamine must be considered as having a high degree of safety, there have been certain side effects in a few of the patients treated. These have been slight nausea in about 30% of the cases (the nausea, however, disappearing after about one week of treatment), vomiting and dizziness in 5-10% of the patients (also disappearing after about one week of treatment in most cases), and more severe side effects in 4-6% of the patients. These more severe side effects must be considered acceptable in view of the effect of the drug; however, in patients who are suspected of developing arrhythmia, it should be considered to administer, e.g., atropine in combination with the treatment according to the invention.

[3] = system: persons suffering from Chronic Fatigue Syndrome; experiment: Double-blind cross-over trial in Chronic Fatigue Syndrome: patient-completed visual analogue scales; assay type: in vivo, human; parameters: Sleep Disturbance visual analogue scale, mean / Fatigue visual analogue scale, mean / Myalgia visual analogue scale, mean / Work Capacity/Satisfaction visual analogue scale, mean / Memory visual analogue scale, mean / Dizziness visual analogue scale, mean / Sleep visual analogue scale, mean / Work visual analogue scale, mean: scale not given here
Source text: (§1) 20 persons suffering from Chronic Fatigue Syndrome fulfilling the criteria described in example 4 or 5.
(§2) Each patient received treatment for a minimum of 8 weeks. The first 2 weeks incorporated an escalating schedule to stabilise the patient on an appropriate dose. The trial was running for eight weeks.
(§3) 11 of the persons were randomly allocated to galanthamine treatment, and the remaining 9 to placebo treatment. The protocol for the trial made provisions for the clinician to opt after two weeks of treatment for transfer to the alternative treatment.
(§4) The data available for the evaluation covered groups of patient-completed visual analogue scales to assess sleep disturbance, fatigue, myalgia, work capacity/satisfaction, and dizziness, together with time per response on a visual search task.
In order to assess any underlying, overall performance difference between the galanthamine and placebo treated patients, the median (the statistic which differentiates the upper and lower 50% of scores) of the changes across all scales, was computed for the placebo treated patients.

[4] = system: persons suffering from Chronic Fatigue Syndrome; experiment: Double-blind cross-over trial in Chronic Fatigue Syndrome: clinician's transfer to alternative treatment; assay type: in vivo, human; settings: after two weeks of treatment; 9/9 on placebo; exact p=0.00006
Source text: as §1, §2, §3

[5] = system: persons suffering from Chronic Fatigue Syndrome; experiment: Double-blind cross-over trial in Chronic Fatigue Syndrome: visual search task; assay type: in vivo, human
Source text: as §1, §2, §3, §4

[6] = system: persons suffering from Chronic Fatigue Syndrome; experiment: Double-blind cross-over trial in Chronic Fatigue Syndrome: Cognitive Failures Questionnaire; assay type: in vivo, human
Source text: as §1, §2
11 of the persons were randomly allocated to galanthamine treatment, and the remaining 9 to placebo treatment. The protocol for the trial made provisions for the clinician to opt after two weeks of treatment for transfer to the alternative treatment. […]

[7] = system: auditory evoked potentials in the brain stem; experiment: Auditory brain stem response; assay type: in vivo, human
Protocol: The auditory brain stem response test is based on the observation that manio-depressive patients are hypersensitive to cholinergic influences, one manifestation hereof being hypersensitivity to auditory signals as assessed by the increase of amplitude of auditory evoked potentials in the nuclei of the auditory system in the brain stem, i.e. on the "brain side" of the blood brain barrier. […] See also example 3.
Electrical potentials caused by click-stimulation in the ears are measured with electrodes positioned outside on the head of the examined parson. In the configuration of the potentials are components from the brain stem and the brain.
A patient suffering from bipolar manio-depression in the depressive stats and a healthy person, respectively.
Tablet containing 10 mg galanthamine

[8] = system: acetylcholinesterase in the erythrocytes; settings: within 2 minutes after 10 mg i.v., healthy volunteer; cited from earlier work
[9] = system: butyrylcholinesterase in plasma; settings: after 10 mg i.v., healthy volunteer; cited from earlier work
[10] = cited from earlier work
[11] = use as anticurare agent in anesthesiology in Eastern Block countries since around 1958; cited from earlier work
[12] = system: acetylcholinesterase as opposed to butyrylcholinesterase; settings: cited from earlier work
[13] = all galanthamine treated patients, 1 Week, N = 19
[14] = all galanthamine treated patients, 2 Weeks, N = 19
[15] = all galanthamine treated patients, 4 Weeks, N = 18
[16] = all galanthamine treated patients, 8 Weeks, N = 17
[17] = all galanthamine treated patients, Baseline, N = 19
[18] = randomly allocated to galanthamine (N=11), After 1 Week
[19] = randomly allocated to galanthamine (N=11), After 2 Weeks
[20] = randomly allocated to galanthamine (N=11), Baseline
[21] = 2 hours after 10 mg tablet, treated compared to untreated

COc1ccc2c3c1O[C@H]1C[C@@H](O)C=C[C@@]31CCN(C)C2 [galanthamine]
solubility in water [1]: only sparingly soluble
slight nausea, share of cases ([2]; disappearing after about one week of treatment): about 30%
vomiting and dizziness, share of patients ([2]; disappearing after about one week of treatment in most cases): 5-10%
more severe side effects, share of patients ([2]; human, in vivo): 4-6%
Dizziness visual analogue scale, mean [3, 13]: 8.96
Fatigue visual analogue scale, mean [3, 13]: 26.63
Memory visual analogue scale, mean [3, 13]: 5.41
Myalgia visual analogue scale, mean [3, 13]: 14.25
Sleep visual analogue scale, mean [3, 13]: 17.26
Work visual analogue scale, mean [3, 13]: 10.22
Dizziness visual analogue scale, mean [3, 14]: 6.94
Fatigue visual analogue scale, mean [3, 14]: 20.64
Memory visual analogue scale, mean [3, 14]: 4.79
Myalgia visual analogue scale, mean [3, 14]: 11.24
Sleep visual analogue scale, mean [3, 14]: 15.51
Work visual analogue scale, mean [3, 14]: 8.21
Dizziness visual analogue scale, mean [3, 15]: 6.30
Fatigue visual analogue scale, mean [3, 15]: 17.42
Memory visual analogue scale, mean [3, 15]: 4.33
Myalgia visual analogue scale, mean [3, 15]: 12.01
Sleep visual analogue scale, mean [3, 15]: 11.89
Work visual analogue scale, mean [3, 15]: 7.40
Dizziness visual analogue scale, mean [3, 16]: 4.77
Fatigue visual analogue scale, mean [3, 16]: 17.81
Memory visual analogue scale, mean [3, 16]: 4.50
Myalgia visual analogue scale, mean [3, 16]: 10.51
Sleep visual analogue scale, mean [3, 16]: 10.88
Work visual analogue scale, mean [3, 16]: 7.34
Dizziness visual analogue scale, mean [3, 17]: 8.39
Fatigue visual analogue scale, mean [3, 17]: 28.00
Memory visual analogue scale, mean [3, 17]: 5.10
Myalgia visual analogue scale, mean [3, 17]: 16.32
Sleep visual analogue scale, mean [3, 17]: 19.45
Work visual analogue scale, mean [3, 17]: 9.21
galanthamine treated patients changes on the analogue scales that fall above the placebo median ([3]; first two weeks of treatment, across all scales, exact p=0.033): 68.18%
Dizziness visual analogue scale, mean [3, 18]: 9.00
Fatigue visual analogue scale, mean [3, 18]: 29.76
Memory visual analogue scale, mean [3, 18]: 5.89
Myalgia visual analogue scale, mean [3, 18]: 15.95
Sleep Disturbance visual analogue scale, mean [3, 18]: 17.90
Work Capacity/Satisfaction visual analogue scale, mean [3, 18]: 11.61
Dizziness visual analogue scale, mean [3, 19]: 8.79
Fatigue visual analogue scale, mean [3, 19]: 25.21
Memory visual analogue scale, mean [3, 19]: 5.62
Myalgia visual analogue scale, mean [3, 19]: 13.58
Sleep Disturbance visual analogue scale, mean [3, 19]: 18.42
Work Capacity/Satisfaction visual analogue scale, mean [3, 19]: 9.64
Dizziness visual analogue scale, mean [3, 20]: 9.05
Fatigue visual analogue scale, mean [3, 20]: 29.41
Memory visual analogue scale, mean [3, 20]: 5.31
Myalgia visual analogue scale, mean [3, 20]: 17.58
Sleep Disturbance visual analogue scale, mean [3, 20]: 20.78
Work Capacity/Satisfaction visual analogue scale, mean [3, 20]: 9.43
patients transferred by the clinician to the alternative treatment (failed to benefit) [4]: 1/11
average time per response on a visual search task, mean (standard error) ([5]; 336 h): 5.51 (0.43)
average time per response on a visual search task, mean (standard error) [5, 13]: 6.24 (0.40)
average time per response on a visual search task, mean (standard error) [5, 15]: 5.83 (0.40)
average time per response on a visual search task, mean (standard error) [5, 16]: 5.25 (0.31)
average time per response on a visual search task, mean (standard error) [5, 17]: 6.79 (0.36)
Cognitive Failures Questionnaire, mean (standard error) ([6]; 672 h): 40.94 (3.87)
Cognitive Failures Questionnaire, mean (standard error) [6, 16]: 38.47 (3.71)
Cognitive Failures Questionnaire, mean (standard error) [6, 17]: 47.74 (3.56)
amplitude of auditory brain stem response, depressive patient [7, 21]: dramatically increase of the amplitude
auditory brain stem response potentials, healthy person [7, 21]: potentials do not change
ability to cross the blood-brain barrier ([7]; concluded from change of potentials in the depressed person): must be able to cross the blood-brain barrier
inhibition of acetylcholinesterase in the erythrocytes [8]: 65%
inhibition of butyrylcholinesterase in plasma [9]: no inhibition
time to complete elimination of metabolites and galanthamine ([10]; in vivo): 72 h
duration of an effective concentration ([10]; warranted by elimination half life, probably at least 6 hours): at least 4 hours
liver toxicity or serious side effects [11]: without any reported case of liver toxicity or serious side effects
selectivity for acetylcholinesterase as opposed to butyrylcholinesterase ([12]; in vitro method by Thomsen et al.): about 50 fold
in vitro selectivity for acetylcholinesterase opposed the effect on butyrylcholinesterase ([12]; ratio, as reported by Thomsen, Life Sciences 46): 50 to 1
